Experimental data reported in ChEMBL document CHEMBL4130415, “Discovery of new MD2-targeted anti-inflammatory compounds for the treatment of sepsis and acute lung injury” (Eur J Med Chem, 2017).
Active and inactive are the calls of the source. No cut-off for these calls is given here.

What was measured:
Peritoneal macrophage [1] = test: Antiinflammatory activity in ICR mouse primary peritoneal macrophages assessed as inhibition of LPS-induced TNF-alpha production at 10 uM pretreated for 2 hrs followed by LPS challenge measured after 22 hrs by ELISA relative to control; type: functional
Peritoneal macrophage [2] = test: Antiinflammatory activity in ICR mouse primary peritoneal macrophages assessed as inhibition of LPS-induced IL-6 production at 10 uM pretreated for 2 hrs followed by LPS challenge measured after 22 hrs by ELISA relative to control; type: functional
Peritoneal macrophage [3] = test: Antiinflammatory activity in ICR mouse primary peritoneal macrophages assessed as inhibition of LPS-induced TNF-alpha production pretreated for 2 hrs followed by LPS challenge measured after 22 hrs by ELISA; type: functional, cell-based
Peritoneal macrophage [4] = test: Antiinflammatory activity in ICR mouse primary peritoneal macrophages assessed as inhibition of LPS-induced IL-6 production pretreated for 2 hrs followed by LPS challenge measured after 22 hrs hrs by ELISA; type: functional, cell-based
Mus musculus [5] = test: Antiinflammatory activity in LPS-induced C57BL/6 mouse assessed as mouse survival at 10 mg/kg, iv pretreated for 15 mins followed by LPS challenge measured after 7 days; type: functional, organism-based
Peritoneal macrophage [6] = test: Antiinflammatory activity in ICR mouse primary peritoneal macrophages assessed as inhibition of Pam3CK-induced TNF-alpha production at 10 uM pretreated for 2 hrs followed by Pam3CK challenge measured after 12 hrs by ELISA; type: functional, cell-based
Mus musculus [7] = test: Antiinflammatory activity in C57BL/6 mouse assessed as reduction in LPS-induced interstitial edema in lung at 10 mg/kg, iv pretreated for 15 mins followed by LPS challenge measured after 6 hrs by hematoxylin and eosin staining-based light microscopic analysis; type: functional, organism-based
Mus musculus [8] = test: Antiinflammatory activity in C57BL/6 mouse assessed as reduction in LPS-induced IL-6 mRNA level in bronchoalveolar lavage fluid at 10 mg/kg, iv pretreated for 15 mins followed by LPS challenge measured after 6 hrs by qPCR analysis; type: functional, organism-based
Mus musculus [9] = test: Antiinflammatory activity in C57BL/6 mouse assessed as reduction in LPS-induced total cell numbers in bronchoalveolar lavage fluid at 10 mg/kg, iv pretreated for 15 mins followed by LPS challenge measured after 6 hrs by flow cytometric analysis; type: functional, organism-based
Mus musculus [10] = test: Antiinflammatory activity in C57BL/6 mouse assessed as reduction in LPS-induced total protein level in bronchoalveolar lavage fluid at 10 mg/kg, iv pretreated for 15 mins followed by LPS challenge measured after 6 hrs; type: functional, organism-based
Mus musculus [11] = test: Antiinflammatory activity in LPS-induced C57BL/6 mouse assessed as increase in immunoreactivity to CD68 in lung at 10 mg/kg, iv pretreated for 15 mins followed by LPS challenge measured after 6 hrs by immunohistochemical analysis; type: functional, organism-based
Mus musculus [12] = test: Antiinflammatory activity in C57BL/6 mouse assessed as reduction in LPS-induced TNF-alpha mRNA level in bronchoalveolar lavage fluid at 10 mg/kg, iv pretreated for 15 mins followed by LPS challenge measured after 6 hrs by qPCR analysis; type: functional, organism-based
Mus musculus [13] = test: Antiinflammatory activity in C57BL/6 mouse assessed as reduction in LPS-induced wet to dry lung edema ratio at 10 mg/kg, iv pretreated for 15 mins followed by LPS challenge measured after 6 hrs; type: functional, organism-based
Mus musculus [14] = test: Antiinflammatory activity in C57BL/6 mouse assessed as reduction in LPS-induced interalveolar septal thickening in lung at 10 mg/kg, iv pretreated for 15 mins followed by LPS challenge measured after 6 hrs by hematoxylin and eosin staining-based light microscopic analysis; type: functional, organism-based
Mus musculus [15] = test: Antiinflammatory activity in C57BL/6 mouse assessed as reduction in LPS-induced inflammatory cell infiltration in lung at 10 mg/kg, iv pretreated for 15 mins followed by LPS challenge measured after 6 hrs by hematoxylin and eosin staining-based light microscopic analysis; type: functional, organism-based
Mus musculus [16] = test: Antiinflammatory activity in C57BL/6 mouse assessed as reduction in LPS-induced IL-1beta mRNA level in bronchoalveolar lavage fluid at 10 mg/kg, iv pretreated for 15 mins followed by LPS challenge measured after 6 hrs by qPCR analysis; type: functional, organism-based

Row | IC50 (Peritoneal macrophage [3]) | IC50 (Peritoneal macrophage [4]) | Structure (SMILES) | inhibition (Peritoneal macrophage [1]) | inhibition (Peritoneal macrophage [2]) | inhibition (Peritoneal macrophage [3]) | inhibition (Peritoneal macrophage [4]) | inhibition (Peritoneal macrophage [6]) | further results
1 | – | – | COc1cc(O)c(CC=C(C)C)c(O)c1C(=O)/C=C/c1ccc(O)cc1 | inactive | inactive | – | – | – | –
2 | 2.96 µM | 3.62 µM | COc1cccc(/C=C/C(=O)/C=C/c2ccc(O)c(Br)c2)c1OC | – | – | Dose-dependent effect | Dose-dependent effect | inactive | Activity (Mus musculus [5]): Active
3 | 4.73 µM | 4.18 µM | COc1ccccc1/C=C/C(=O)/C=C/c1ccccc1Br | – | – | Dose-dependent effect | Dose-dependent effect | inactive | inhibition at 10 µM (Peritoneal macrophage [1]): 97.6%; Activity (Mus musculus [7]): Active; Activity (Mus musculus [8]): Active; inhibition at 10 µM (Peritoneal macrophage [2]): 99.6%; Activity (Mus musculus [9]): Active; Activity (Mus musculus [10]): Active; Activity (Mus musculus [11]): Active; Activity (Mus musculus [12]): Active; Activity (Mus musculus [5]): Active; Activity (Mus musculus [13]): Active; Activity (Mus musculus [14]): Active; Activity (Mus musculus [15]): Active; Activity (Mus musculus [16]): Active
4 | 3.71 µM | 4.13 µM | COc1ccccc1/C=C/C(=O)/C=C/c1ccc(O)c(Br)c1 | – | – | Dose-dependent effect | Dose-dependent effect | inactive | –
5 | – | – | COc1ccc(/C=C2\CCC/C(=C\c3cccc(OC)c3OC)C2=O)c(F)c1 | inactive | inactive | – | – | – | –
6 | – | – | COc1cc(OC)c(/C=C/C(=O)/C=C/c2cccc(OC)c2OC)c(OC)c1 | inactive | inactive | – | – | – | –
7 | – | – | COc1cc(OC)c(/C=C/C(=O)/C=C/c2ccc(OC)c(OC)c2)c(OC)c1 | inactive | inactive | – | – | – | –
